# Several values for one entry are separate records, joined by “and”; a condition that tells them apart may be missing. Identical values can stand only once. Like-named read-outs stand apart in the source and are kept apart here.
# Assays:
# Ficin = Ficin inhibitory activity (casein hydrolysis); format: biochemical; settings: enzyme 60 μg protein; substrate casein
# Procedure: (§1) The 0.2 ml of a solution of papain (300 μg/ml, Boeringer Mannheim AG), 0.25 ml of 40 mM cysteine solution dissolved in 5 mM EDTA solution adjusted pH to 6.8 with sodium hydroxide and 0.55 ml of the 50 mM phosphate buffer (pH 6.8) with or without inhibitor were mixed and incubated at 40° C. for 10 min., followed by adding 4 ml of 1.5% casein solution dissolved in a 50 mM phosphate buffer (pH 6.8) to carry out a reaction at 40° C. for 15 min. Then, 2 ml of 1.1M trichloroacetic acid is added to terminate the reaction. After being left to stand at room temperature for one hour, the reaction mixture is centrifuged at 3500 rpm for 10 minutes and absorbance (S) of the trichloroacetic acid soluble fraction at 280 mμ is measured. Similarly, absorbance (B) at 280 mμ is measured when no inhibitors are added. The percent inhibition was calculated by the following formula: […]
# (§2) The amount of inhibitor for 50% inhibition was expressed as IC50.
# (§3) Inhibitory activities against ficin (protein amount: 60 μg, manufactured by Boehringer Mannheim AG) and bromelain (protein content: 100 μg, manufactured by Boehringer Mannheim AG) are also measured by the similar method.
# Papain = target: T1, Papain (Carica papaya, UniProt P00784); experiment: Papain inhibitory activity (casein hydrolysis); format: biochemical
# T1 construct: purchased Boehringer Mannheim AG
# T1 sequence (P00784 134-345): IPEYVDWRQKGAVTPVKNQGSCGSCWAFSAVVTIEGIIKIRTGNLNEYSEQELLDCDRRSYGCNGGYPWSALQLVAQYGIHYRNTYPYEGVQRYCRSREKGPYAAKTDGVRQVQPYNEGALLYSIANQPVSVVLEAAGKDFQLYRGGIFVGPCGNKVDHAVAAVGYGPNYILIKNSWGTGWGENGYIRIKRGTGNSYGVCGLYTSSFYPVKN
# Procedure: as §1, §2
# Trypsin = Trypsin inhibitory activity (casein hydrolysis); format: biochemical; settings: enzyme 1000 μg protein; substrate casein
# Excerpt: (§4) The enzyme reactions were all measured according to the prescribed methods.
# (§5) (α-chymotrypsin and pepsin used are those manufactured by PL Biochemical Co., and trypsin is that manufactured by Wako Junyaku Co.)
# Solubility = format: physicochemical
# Excerpt: Insoluble in and pyridine.
# Bromelain = target: T2, Bromelain (Ananas comosus, UniProt P14518); experiment: Bromelain inhibitory activity (casein hydrolysis); format: biochemical
# T2 construct: purchased Boehringer Mannheim AG
# T2 sequence (P14518 1-212): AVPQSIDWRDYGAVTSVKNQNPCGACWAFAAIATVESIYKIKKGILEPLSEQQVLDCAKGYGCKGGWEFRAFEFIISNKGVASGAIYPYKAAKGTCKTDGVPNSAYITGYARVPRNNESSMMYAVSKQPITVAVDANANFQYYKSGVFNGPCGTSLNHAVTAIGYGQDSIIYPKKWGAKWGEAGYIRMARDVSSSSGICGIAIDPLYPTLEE
# Procedure: as §1, §2, §3
# [1] = tested on: production of IgE antibody; experiment: Activity on the production of IgE antibody in mice (PCA reaction); format: in vivo, BDF1 strain male mice; settings: for IgE antibody titers (PCA antibody titers), individual mice: 200 mg/Kg ip 2 hours before immunization with egg albumin + aluminum hydroxide, blood after 14 days, reciprocal of maximum dilution with positive blueing in rats; for Effect on production of IgE antibody (in words): mice, 200 mg/Kg ip
# Procedure: Activity on the production of IgE antibody was examined by the following method.
# Estatin A or Estatin B dissolved in physiological saline were administered ip to BDF1 strain male mice weighing 18-22 g (one group 5 mice) at a dose of 200 mg/Kg. Control group (10 mice) received only physiological saline. After 2 hours from the administration, 4 mg of aluminum hydroxide together with 10 μg of egg albumin was administered ip to immunize them. After 14 days from the immunization, blood was collected and IgE antibody titer was assayed by PCA reaction (See "International Archives of Allergy and Applied Immunology" Vol. 48, Page 16, 1975.).
# That is, serum samples were serially diluted and injected intradermally into the back of Wistar strain male rats weighing 200-250 g. After 48 hours, 1 ml of 1% Evans blue in physiological saline containing 2 mg of egg albumin was administered iv and rats were killed 30 min. later, and blueing of saline were observed. […] The results are shown below. ______________________________________ PCA Antibody TITERS Test drugs IgE antibody titers ______________________________________ Estatin A <100 <100 <100 <100 <100 Estatin B <100 <100 <100 <100 100 Control 400 800 800 800 800 800 1600 1600 1600 3200 ______________________________________
# mice = experiment: Acute toxicity; format: in vivo; settings: ip, 400 mg/Kg
# [2] = tested on: production of IgG antibody; experiment: Activity on the production of IgG antibody in mice (passive hemagglutination test); format: in vivo, BDF1 strain male mice; settings: for IgG antibody titers, individual mice: 200 mg/Kg ip 2 hours before immunization with egg albumin + Freund complete adjuvant, blood after 2 weeks, passive hemagglutination; for Effect on production of IgG antibody (in words): mice, 200 mg/Kg ip
# Procedure: Activity on the production of IgG antibody was examined by the following method.
# Estatin A or Estatin B were administered ip to BDF1 strain male mice weighing 18-22 g (one group 5 mice) at a dose of 200 mg/Kg. Control group (10 mice) received only physiological saline.
# After 2 hours from the administration each mouse was immunized by intradermal injection with 0.2 mg/0.1 ml of egg albumin together with equal volume of Freund complete adjuvant into the 2 separate sites of the back of the mice. After 2 weeks blood was collected and antibody titers were determined by passive hemagglutination test using glutalaldehyde as coupling reajent. The results are shown below. ______________________________________ Test drugs IgG antibody titers ______________________________________ Estatin A 12800, 6450, 25600 12800, 12800 Estatin B 6400, 25600, 12800 25000, 12800 Control 12800, 25600, 25600, 12800, 6450 12800, 12800, 12800, 12800, 12800 ______________________________________
# Pepsin = target: T3, Pepsin (Sus scrofa, UniProt P00791); experiment: Pepsin inhibitory activity (casein hydrolysis); format: biochemical
# T3 construct: purchased PL Biochemical Co
# T3 sequence (P00791 60-385): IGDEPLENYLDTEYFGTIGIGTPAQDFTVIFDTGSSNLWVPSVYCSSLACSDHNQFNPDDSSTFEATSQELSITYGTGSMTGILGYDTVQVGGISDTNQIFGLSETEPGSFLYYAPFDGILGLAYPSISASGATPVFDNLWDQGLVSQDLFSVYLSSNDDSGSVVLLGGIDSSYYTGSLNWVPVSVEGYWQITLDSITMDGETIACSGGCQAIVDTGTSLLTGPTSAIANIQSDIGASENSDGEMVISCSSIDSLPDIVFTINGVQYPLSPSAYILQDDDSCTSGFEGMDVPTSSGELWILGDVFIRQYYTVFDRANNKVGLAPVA
# Excerpt: as §4, §5
# Stability = settings: stable at a pH of
# α-Chymotrypsin = target: T4, α-Chymotrypsin (Bos taurus, UniProt P00766); experiment: α-Chymotrypsin inhibitory activity (casein hydrolysis); format: biochemical
# T4 construct: purchased PL Biochemical Co
# Excerpt: as §4, §5
SMILES,"IC50 concentration, Ficin (Ficin) [µg/mL]",IC50 (Papain) [nM],"IC50 concentration, Trypsin (Trypsin) [µg/mL]","Solubility in benzene, chloroform, ethyl acetate and petroleum ether (Solubility)","Solubility in water, acetic acid, dimethyl sulfoxide and pyridine (Solubility)","IC50 (Bromelain; enzyme 100 μg protein, substrate casein, read-out: IC50 concentration, Bromelain (converted)) [nM]","IgE antibody titers (PCA antibody titers), individual mice [1]",Effect on production of IgE antibody (in words) [1],Acute toxicity (mice),"IgG antibody titers, individual mice [2]",Effect on production of IgG antibody (in words) [2],"IC50 (Pepsin; enzyme 100 μg protein, substrate casein, read-out: IC50 concentration, Pepsin) [nM]",Stability: pH at which stable (Stability),"IC50 (α-Chymotrypsin; enzyme 200 μg protein, substrate casein, read-out: IC50 concentration, α-Chymotrypsin) [nM]",IC50 (Bromelain) [nM],IC50 (Pepsin) [nM],IC50 (α-Chymotrypsin) [nM],"IC50 (Papain; enzyme 60 μg protein, substrate casein, read-out: IC50 concentration, Papain (converted)) [nM]"
"N=C(N)NCCCCNC(=O)[C@H](Cc1ccccc1)NC(=O)[C@H]1O[C@@H]1C(=O)O [Estatin A, N-[N-(L-3-trans-carboxyoxiran-2-carbonyl)-L-phenylalanyl]agmatine]",0.039,66.4,> 50,Insoluble,Soluble,370,< 100,inhibit the production of IgE antibody,no toxic effect,12800 (3×) and 6450 and 25600,do not inhibit the production of IgG antibody,> 128000,2-9,> 128000,,,,
"N=C(N)NCCCCNC(=O)[C@H](Cc1ccc(O)cc1)NC(=O)[C@H]1O[C@@H]1C(=O)O [Estatin B, N-[N-(L-3-trans-carboxyoxiran-2-carbonyl)-L-tyrosyl]agmatine]",0.041,66.3,> 50,Insoluble,Soluble,,< 100 (4×) and 100,inhibit the production of IgE antibody,no toxic effect,6400 and 25600 and 12800 (2×) and 25000,do not inhibit the production of IgG antibody,,,,356,> 123000,> 123000,
N=C(N)NCCCCNC(=O)[C@H](Cc1ccccc1)NC(=O)C1OC1C(=O)O (mixture of isomers) [N-[N-(D- and L-3-trans-carboxyoxiran-2-carbonyl-L-phenylalanyl]agmatine],,,,,,,,,,,,,,,,,,74.1

# From patent US4732910A, “Enzyme Inhibiting substance” (Toyo Jozo Co, Ltd., priority 1985, dated 1988)
